Experiments:
[1] = biological target: T1, ICAM-1 binding to immobilized Mac-1 (Homo sapiens, UniProt P05107+P11215); assay: Mac-1/ICAM-1 screening assay (solid-phase ELISA); details: read-out: Mac-1/ICAM-1 Protein-Protein Assay IC50
T1 construct: made in house; host or cells: transfected 293 cells (Mac-1)
How it was run: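 Competitive solid-phase ELISA: membrane Mac-1 from transfected 293 cells coated at 3 μg/mL in 20 mM Hepes pH 7.2/0.14 M NaCl/1 mM MnCl2; compounds (0.12 nM-20 μM, 1:4 series) plus 5dICAM-Ig (40 μg/mL, added) 2 h at 37° C. Bound ICAM-Ig detected with HRP anti-human IgG Fc, TMB, A450; IC50 reported.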

[2] = test system: T lymphocyte proliferation (C57BI/6 spleen cells with irradiated BALB/c spleen cells); assay: Mixed lymphocyte reaction (MLR), one-way; format: cell-based, mice; details: Mus musculus, T-lymphocyte; read-out: MLR IC50
How it was run: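 Irradiated BALB/c spleen cells mixed with C57BI/6 spleen cells in RPMI1640/10% heat-inactivated FBS/2-mercaptoethanol, with serial antagonist dilutions; 3 days at 5% CO2. Tritiated thymidine (0.5 μCi/well) added on day 3; incorporation counted by liquid scintillation after a further 6 h.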

T1 sequence (P05107 23-769, other chains not shown): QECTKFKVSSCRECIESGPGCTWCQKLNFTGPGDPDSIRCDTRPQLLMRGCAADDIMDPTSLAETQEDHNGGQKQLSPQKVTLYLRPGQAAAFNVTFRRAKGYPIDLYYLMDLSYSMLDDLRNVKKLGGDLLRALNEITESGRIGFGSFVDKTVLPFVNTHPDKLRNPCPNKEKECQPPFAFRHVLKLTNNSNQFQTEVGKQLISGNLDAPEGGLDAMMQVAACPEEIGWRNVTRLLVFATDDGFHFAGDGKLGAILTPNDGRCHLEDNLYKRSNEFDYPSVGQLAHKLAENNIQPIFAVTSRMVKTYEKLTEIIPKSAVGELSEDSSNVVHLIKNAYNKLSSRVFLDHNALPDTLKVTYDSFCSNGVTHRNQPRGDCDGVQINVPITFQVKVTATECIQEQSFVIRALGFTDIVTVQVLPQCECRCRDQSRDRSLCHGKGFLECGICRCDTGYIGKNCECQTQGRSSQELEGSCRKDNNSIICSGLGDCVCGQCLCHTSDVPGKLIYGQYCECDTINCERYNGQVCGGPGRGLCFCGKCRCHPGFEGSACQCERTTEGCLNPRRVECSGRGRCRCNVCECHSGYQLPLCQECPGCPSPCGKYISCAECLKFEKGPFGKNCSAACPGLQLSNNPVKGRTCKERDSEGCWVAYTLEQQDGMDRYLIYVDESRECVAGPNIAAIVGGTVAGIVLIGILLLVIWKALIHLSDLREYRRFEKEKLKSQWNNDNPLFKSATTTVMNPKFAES

SMILES	IC50 [1]	IC50 [2]
O=C(NCc1cccc(O)c1)c1ccc(C(=O)N[C@@H](CNC(=O)c2cccc(C(F)(F)F)c2)C(=O)O)c(Cl)c1 [Example 146]	0.027 µM	0.49 µM
COc1cc(C(=O)NC[C@H](NC(=O)c2ccc(C(=O)NCc3cccc(O)c3)cc2Cl)C(=O)O)cc(OC)c1OC [Example 147]	0.119 µM	4.6 µM
O=C(NCc1cccc(O)c1)c1ccc(C(=O)N[C@@H](CNC(=O)c2ccco2)C(=O)O)c(Cl)c1 [Example 148]	0.018 µM	0.335 µM
O=C(NCc1cccc(O)c1)c1ccc(C(=O)N[C@@H](CNC(=O)c2ccc([N+](=O)[O-])o2)C(=O)O)c(Cl)c1 [Example 149]	0.035 µM	0.95 µM
O=C(NCc1cccc(O)c1)c1ccc(C(=O)N[C@@H](CNC(=O)c2ccc(Br)o2)C(=O)O)c(Cl)c1 [Example 150]	0.021 µM	0.8 µM
O=C(NCc1cccc(O)c1)c1ccc(C(=O)N[C@@H](CNC(=O)c2ccc[nH]2)C(=O)O)c(Cl)c1 [Example 151]	0.033 µM	0.265 µM
O=C(NCc1cccc(O)c1)c1ccc(C(=O)N[C@@H](CNC(=O)c2sccc2Br)C(=O)O)c(Cl)c1 [Example 154]	0.011 µM	0.365 µM
O=C(NCc1cccc(O)c1)c1ccc(C(=O)N[C@@H](CNC(=O)c2ccc(Br)s2)C(=O)O)c(Cl)c1 [Example 155]	0.013 µM	0.75 µM
O=C(NCc1cccc(O)c1)c1ccc(C(=O)N[C@@H](CNC(=O)c2sccc2Cl)C(=O)O)c(Cl)c1 [Example 156]	0.012 µM	0.465 µM
O=C(NCc1cccc(O)c1)c1ccc(C(=O)N[C@@H](CNC(=O)c2ccc(Cl)s2)C(=O)O)c(Cl)c1 [Example 157]	0.0077 µM	0.7 µM
O=C(NCc1cccc(O)c1)c1ccc(C(=O)N[C@@H](CNC(=O)c2cc(Br)c(Br)s2)C(=O)O)c(Cl)c1 [Example 158]	0.02 µM	7.6 µM
Cc1ccsc1C(=O)NC[C@H](NC(=O)c1ccc(C(=O)NCc2cccc(O)c2)cc1Cl)C(=O)O [Example 159]	0.013 µM	0.165 µM
Cc1ccc(C(=O)NC[C@H](NC(=O)c2ccc(C(=O)NCc3cccc(O)c3)cc2Cl)C(=O)O)s1 [Example 160]	0.0066 µM	0.22 µM
O=C(NCc1cccc(O)c1)c1ccc(C(=O)N[C@@H](CNC(=O)c2ccsc2)C(=O)O)c(Cl)c1 [Example 161]	0.012 µM	0.094 µM
Cc1cccc(C(=O)NC[C@H](NC(=O)c2ccc(C(=O)NCc3cccc(O)c3)cc2Cl)C(=O)O)n1 [Example 163]	0.04 µM	1.55 µM
O=C(NCc1cccc(O)c1)c1ccc(C(=O)N[C@@H](CNC(=O)c2cccnc2)C(=O)O)c(Cl)c1 [Example 165]	0.039 µM	0.8 µM
O=C(NCc1cccc(O)c1)c1ccc(C(=O)N[C@@H](CNS(=O)(=O)c2ccccc2)C(=O)O)c(Cl)c1 [Example 360, 3-(phenylsulfonylamino)-N-[2-chloro-4-[[[(3-hydroxyphenyl)methyl]amino]carbonyl]benzoyl]-L-alanine]	0.6 µM	4.6 µM
CC(=O)Nc1nc(C)c(S(=O)(=O)NC[C@H](NC(=O)c2ccc(C(=O)N[C@H](C)c3cccc4ccccc34)cc2Cl)C(=O)O)s1 [Example 362]	1.53 µM	15 µM
O=C(NCc1ccc(C(=O)N[C@@H](CNC(=O)c2ccccc2)C(=O)O)c(Cl)c1)c1cccc(O)c1 [Example 364, N-[2-chloro-4-[[(3-hydroxyphenyl)carbonyl]aminomethyl]benzoyl]-3-benzoylamino-L-alanine]	0.167 µM	2.85 µM
O=C(NC[C@H](NC(=O)c1ccc(CNC(=O)c2ccccc2O)cc1Cl)C(=O)O)c1ccccc1 [Example 365]	0.208 µM	9.5 µM
O=C(NCc1ccc(C(=O)N[C@@H](CNC(=O)c2ccccc2)C(=O)O)c(Cl)c1)c1cc(O)cc(O)c1 [Example 366]	0.061 µM	1.4 µM
O=C(NCc1ccc(C(=O)N[C@@H](CNC(=O)c2ccccc2)C(=O)O)c(Cl)c1)c1ccc2[nH]ccc2c1 [Example 368]	0.765 µM	3.85 µM
O=C(NCc1ccc(C(=O)N[C@@H](CNC(=O)c2ccccc2)C(=O)O)c(Cl)c1)c1ccc2cc[nH]c2c1 [Example 369]	0.403 µM	3.2 µM
N=C(N)NC[C@H](NC(=O)c1ccc(C(=O)NCc2cccc(O)c2)cc1Cl)C(=O)O [Example 371, N-[2-chloro-4-[[[(3-hydroxyphenyl)methyl]amino]-carbonyl]benzoyl]-3-(aminoiminomethyl)amino-L-alanine]	0.073 µM	3.5 µM
O=C(NC[C@H](NC(=O)c1ccc(/C=C/Cc2ccccc2)cc1Cl)C(=O)O)c1cccs1 [Example 373, N-[2-chloro-4-(3-phenyl-1-propenyl)benzoyl]-3-(thiophene-2-carbonyl)amino-L-alanine]	0.068 µM	12.5 µM
O=C(NC[C@H](NC(=O)c1ccc(C(=O)[C@H]2C[C@@H]2c2ccccc2)cc1Cl)C(=O)O)c1cccs1 [Example 377]	0.16 µM	9.5 µM
O=C(CCc1ccccc1)c1ccc(C(=O)N[C@@H](CNC(=O)c2cccs2)C(=O)O)c(Cl)c1 [Example 378]	0.075 µM	6.4 µM
